Structures are written as SMILES.

A word on the EC50: it is the concentration that produces a half-maximal response.

The test system of this experiment is SK-N-SH human neuroblastoma cells. Put plainly: Serum Deprivation/JC-1 Mitochondrial Membrane Potential (MMP) Assay. Format: cell-based. As to conditions: for EC50: serum deprivation ~18 hours, JC-1 ratio normalized to peak value for 10 μM dimebolin, single curve fit to mean data of n=2-3; for Emax / JC-1 max %: percent maximal intensity in JC-1 ratio normalized to peak value for 10 μM dimebolin, serum deprivation; for Emax: read-out: JC-1 max %. The source says: The method also involves a high-throughput assay using serum-deprivation conditions involving neuronal cells to screen for compounds that increase or preserve mitochondrial membrane potential. Such compounds can be found to aid in rescuing cells from energy-depletion that occurs in several neurodegenerative states. Mitochondrial-mediated apoptosis occurs in response to a wide range of apoptotic stimuli including p^53, c-myc, DNA damage, prooxidants, chemotherapeutic agents, serum starvation and death receptor activation (Lin C—H., Lu Y-Z., Cheng, F-C., Chu L-F. and Hsuch C-M. Bax-regulated mitochondrial-mediated apoptosis is responsible for the in vitro ischemia induced neuronal cell death of Sprague Dawley rat. Neuroscience Lett. 2005, 387, 22-27).
Thus, this stress inducer, serum deprivation, combined with monitoring changes in the mitochondrial membrane potential in a 96-well format allows for the establishment of an efficient high-throughput screen (HTS) in order to evaluate the ability of compounds to increase mitochondrial membrane potential in the presence of stress and preserve health of the cell. Exemplary procedures for conducting such high-throughput assay are provided below.
SK-N-SH human neuroblastoma cells obtained from American Type Culture Collection (Rockville, Md.) were maintained in the log phase of growth in Minimal Essential Media (MEM), 10% heat inactivated fetal calf serum and 100 units/mL antibiotic-antimycotic (AA). Cells were cultured and maintained in a humidified incubator at 37° C. under 5% CO2 and 95% air. Cells were trypsinized (0.25%) and subcultured every 3 days and used from 15-18 passages. All cell culture supplies were obtained from Invitrogen (Carlsbad, Calif.).
SK-N-SH cells were plated 2-3 days in advance at a concentration of 50,000 cells/well onto collagen coated black-walled 96 well plates (Becton-Dickinson, Bedford, Mass.) in a total volume of […]. On day of experimental treatment, the media containing serum was aspirated from each well and rinsed once with MEM/1% AA without serum. The cells then were incubated overnight in 100 μL of MEM/1% AA (no serum) with and without dimebolin or novel chemical entities overnight for ˜18 hours. The following day, JC-1 dye (5,5′,6,6′-tetrachloro-1,1′,3,3′-tetraethylbenzimidazolcarbocyanide) was diluted 1:10 into MEM media according to the JC-1 Mitochondrial Membrane Potential Assay Kit: (Cayman Chemical Company, Ann Arbor, Mich.) and then 10 μL of the JC-1 dye solution was added to each well. The plates were centrifuged for 5 minutes at 400×g at room temperature followed by 40 minute incubation at 37° C. The plates were washed twice with 200 μL of provided Assay Buffer followed an addition of 100 μL of Assay Buffer to each well. The plates were read with an excitation and emission of 560 nm and 595 nM for red fluorescence and with an excitation and emission of 485 nm and 535 nM for green fluorescence to determine the final JC-1 value taking the red to green fluorescence ratio. This assay is based on change in mitochondrial membrane potential (MMP) using this lipophilic cationic dye, JC-1, by monitoring the changes in the ratio of red to green fluorescence as the MMP depolarizes. This change in MMP reflects the health of the cell with healthy, viable cells have a high JC-1 ratio and high MMP whereas apoptotic, unhealthy cells have a low JC-1 ratio or low MMP.
For the ability of compounds to reverse the stress due to serum deprivation and increase the JC-1 ratio, the percent maximal intensity in JC-1 ratio was normalized to that induced by the peak value for 10 μM dimebolin and plotted against the compound concentration to calculate EC50 values and to control for plate-to-plate variability. Concentration-response data were analyzed using GraphPad Prism (San Diego, Calif.); the EC50 values were derived from a single curve fit to the mean data of n=2-3, in duplicates. […]

Turning to `O=C([C@@H]1C[C@H]1c1ccccc1)N1Cc2ccccc2N2CCN(Cc3ccccc3)CC2C1` (relative stereo) [Example 15, (3-benzyl-1,2,3,4,4a,5-hexahydropyrazino[1,2-a][1,4]benzodiazepin-6(7H)-yl)[trans-2-phenylcyclopropyl]methanone], the EC50 (Homo sapiens, SK-N-SH, 18 h) was 2.19 µM. Besides, the Emax (Homo sapiens, SK-N-SH) stood at 225%.

For the compound `Fc1ccc(CN2CCN3c4ccccc4CN(Cc4ccc(Br)cc4)C[C@H]3C2)cc1` (single isomer, unassigned) [Example 61], the EC50 (Homo sapiens, SK-N-SH, 18 h) amounted to 2.57 µM. Under “Homo sapiens, SK-N-SH”, the Emax turned out to be 213%.

Regarding `Fc1ccc(CN2CCN3c4ccccc4CN(Cc4ccc(Br)cc4)C[C@@H]3C2)cc1` (single isomer, unassigned) [Example 62], the EC50 (Homo sapiens, SK-N-SH, 18 h) is 3.65 µM. In addition, the Emax (Homo sapiens, SK-N-SH) came out at 161%.

As for `Brc1ccc(CN2Cc3ccccc3N3CCN(Cc4ccccc4)CC3C2)cc1` (single isomer, unassigned; (+)) [Example 19, (+)-3-benzyl-6-(4-bromobenzyl)-1,2,3,4,4a,5,6,7-octahydropyrazino[1,2-a][1,4]benzodiazepine], the JC-1 max % was 169% and the EC50 worked out at 1.56 µM.

In the case of `Brc1ccc(CN2Cc3ccccc3N3CCN(Cc4ccccc4)CC3C2)cc1` (single isomer, unassigned; (-)) [Example 18, (−)-3-benzyl-6-(4-bromobenzyl)-1,2,3,4,4a,5,6,7-octahydropyrazino[1,2-a][1,4]benzodiazepine], the JC-1 max % is 178% and the EC50 turned out to be 2.72 µM.

For `CC(C)(C)OC(=O)N1CCN2c3ccccc3CNC(=O)C2C1` (centres unmarked) [Example 1, tert-butyl 5-oxo-1,2,4a,5,6,7-hexahydropyrazino[1,2-a][1,4]benzodiazepine-3(4H)-carboxylate], for the setting “Homo sapiens, SK-N-SH, 18 h”, the EC50 turned out to be 9.59 µM. Moreover, the Emax (Homo sapiens, SK-N-SH) is 88%.

Turning to `c1ccc(CN2CCN3c4ccccc4CNCC3C2)cc1` (centres unmarked) [Example 2, 3-benzyl-1,2,3,4,4a,5,6,7-octahydropyrazino[1,2-a][1,4]benzodiazepine], under “Homo sapiens, SK-N-SH, 18 h”, the EC50 is 3.44 µM. Besides, the Emax (Homo sapiens, SK-N-SH) was found to be 186%.

On to `Brc1ccc(CN2Cc3ccccc3N3CCN(Cc4ccccc4)CC3C2)cc1` (centres unmarked) [Example 3, 3-benzyl-6-(4-bromobenzyl)-1,2,3,4,4a,5,6,7-octahydropyrazino[1,2-a][1,4]benzodiazepine], for which the JC-1 max % is on record as 226% and the EC50 turned out to be 2.88 µM.

As for `O=C(Cc1ccccc1)N1Cc2ccccc2N2CCN(Cc3ccccc3)CC2C1` (centres unmarked) [Example 4, 1-(3-benzyl-1,2,3,4,4a,5-hexahydropyrazino[1,2-a][1,4]benzodiazepin-6(7H)-yl)-2-phenylethanone], the EC50 (Homo sapiens, SK-N-SH, 18 h) turned out to be 2.42 µM. The Emax (Homo sapiens, SK-N-SH) was found to be 263%.

For `O=C(c1ccccc1)N1Cc2ccccc2N2CCN(Cc3ccccc3)CC2C1` (centres unmarked) [Example 5, (3-benzyl-1,2,3,4,4a,5-hexahydropyrazino[1,2-a][1,4]benzodiazepin-6(7H)-yl)(phenyl)methanone], for the setting “Homo sapiens, SK-N-SH, 18 h”, the EC50 was found to be 6.7 µM. Also, the Emax (Homo sapiens, SK-N-SH) is 57%.

Take `c1ccc(CN2CCN3c4ccccc4C[N+](Cc4ccccc4)(Cc4ccccc4)CC3C2)cc1` (centres unmarked) [Example 6, 3,6,6-tribenzyl-1,2,3,4,4a,5,6,7-octahydropyrazino[1,2-a][1,4]benzodiazepin-6-ium]: the JC-1 max % was determined as 148% and the EC50 was found to be 6.44 µM.

Turning to `c1ccc(CN2CCN3c4ccccc4CN(Cc4ccccc4)CC3C2)cc1` (centres unmarked) [Example 7, 3,6-dibenzyl-1,2,3,4,4a,5,6,7-octahydropyrazino[1,2-a][1,4]benzodiazepine], the EC50 (Homo sapiens, SK-N-SH, 18 h) was more than 30 µM. Moreover, the Emax (Homo sapiens, SK-N-SH) is 24%.

As for `CN1Cc2ccccc2N2CCN(Cc3ccccc3)CC2C1` (centres unmarked) [Example 8, 3-benzyl-6-methyl-1,2,3,4,4a,5,6,7-octahydropyrazino[1,2-a][1,4]benzodiazepine], for the setting “Homo sapiens, SK-N-SH, 18 h”, the EC50 is 3.03 µM. For the same compound, the Emax (Homo sapiens, SK-N-SH) was found to be 204%.

Consider `c1ccc(CN2CCN3c4ccccc4CN(c4ncccn4)CC3C2)cc1` (centres unmarked) [Example 9, 3-benzyl-6-(pyrimidin-2-yl)-1,2,3,4,4a,5,6,7-octahydropyrazino[1,2-a][1,4]benzodiazepine], for which the EC50 (Homo sapiens, SK-N-SH, 18 h) came to 2.59 µM. Further, for the setting “Homo sapiens, SK-N-SH”, the Emax turned out to be 158%.

As to `O=C(c1ccc(F)cc1)N1Cc2ccccc2N2CCN(Cc3ccccc3)CC2C1` (centres unmarked) [Example 10, (3-benzyl-1,2,3,4,4a,5-hexahydropyrazino[1,2-a][1,4]benzodiazepin-6(7H)-yl)(4-fluorophenyl)methanone], the EC50 (Homo sapiens, SK-N-SH, 18 h) was found to be 2.74 µM. For the same compound, the Emax (Homo sapiens, SK-N-SH) came out at 248%.

As to `c1ccc(CN2CCN3c4ccccc4CN(c4cnccn4)CC3C2)cc1` (centres unmarked) [Example 11, 3-benzyl-6-(pyrazin-2-yl)-1,2,3,4,4a,5,6,7-octahydropyrazino[1,2-a][1,4]benzodiazepine], the EC50 (Homo sapiens, SK-N-SH, 18 h) came out at 5.61 µM. Where the note is “Homo sapiens, SK-N-SH”, the Emax turned out to be 122%.

Turning to `O=C(c1cnccn1)N1Cc2ccccc2N2CCN(Cc3ccccc3)CC2C1` (centres unmarked) [Example 12, (3-benzyl-1,2,3,4,4a,5-hexahydropyrazino[1,2-a][1,4]benzodiazepin-6(7H)-yl)(pyrazin-2-yl)methanone], for the setting “Homo sapiens, SK-N-SH, 18 h”, the EC50 was 1.11 µM. Besides, the Emax (Homo sapiens, SK-N-SH) is 198%.

Turning to `O=C(N1Cc2ccccc2N2CCN(Cc3ccccc3)CC2C1)C1(c2ccccc2)CC1` (centres unmarked) [Example 13, (3-benzyl-1,2,3,4,4a,5-hexahydropyrazino[1,2-a][1,4]benzodiazepin-6(7H)-yl)(1-phenylcyclopropyl)methanone], the EC50 (Homo sapiens, SK-N-SH, 18 h) is 4.18 µM. Besides, for the setting “Homo sapiens, SK-N-SH”, the Emax is 175%.

On to `O=C(N1CCOCC1)N1Cc2ccccc2N2CCN(Cc3ccccc3)CC2C1` (centres unmarked) [Example 14, (3-benzyl-1,2,3,4,4a,5-hexahydropyrazino[1,2-a][1,4]benzodiazepin-6(7H)-yl)(morpholin-4-yl)methanone], for which, where the note is “Homo sapiens, SK-N-SH, 18 h”, the EC50 was found to be 0.754 µM. In addition, where the note is “Homo sapiens, SK-N-SH”, the Emax amounted to 203%.

As for `c1ccc(CN2CCN3c4ccccc4CN(c4ccccn4)CC3C2)cc1` (centres unmarked) [Example 16, 3-benzyl-6-(pyridin-2-yl)-1,2,3,4,4a,5,6,7-octahydropyrazino[1,2-a][1,4]benzodiazepine], under “Homo sapiens, SK-N-SH, 18 h”, the EC50 stood at 3.63 µM. The Emax (Homo sapiens, SK-N-SH) stood at 131%.

Take `Fc1ccc(CN2Cc3ccccc3N3CCN(Cc4ccccc4)CC3C2)cc1` (centres unmarked) [Example 17, 3-benzyl-6-(4-fluorobenzyl)-1,2,3,4,4a,5,6,7-octahydropyrazino[1,2-a][1,4]benzodiazepine]: the half-maximal effective concentration (EC50) (Homo sapiens, SK-N-SH, 18 h) amounted to 4.48 µM. For the same compound, the Emax (Homo sapiens, SK-N-SH) was 183%.

As for `O=C(/C=C/c1ccccc1)N1Cc2ccccc2N2CCN(Cc3ccccc3)CC2C1` (centres unmarked) [Example 20, (2E)-1-(3-benzyl-1,2,3,4,4a,5-hexahydropyrazino[1,2-a][1,4]benzodiazepin-6(7H)-yl)-3-phenylprop-2-en-1-one], the EC50 (Homo sapiens, SK-N-SH, 18 h) is 5.47 µM. Besides, for the setting “Homo sapiens, SK-N-SH”, the Emax is 133%.

On to `FC(F)(F)c1ccc(CN2Cc3ccccc3N3CCN(Cc4ccccc4)CC3C2)cc1` (centres unmarked) [Example 21, 3-benzyl-6-[4-(trifluoromethyl)benzyl]-1,2,3,4,4a,5,6,7-octahydropyrazino[1,2-a][1,4]benzodiazepine], for which, under “Homo sapiens, SK-N-SH, 18 h”, the EC50 was found to be 6.11 µM. For the same compound, the Emax (Homo sapiens, SK-N-SH) came to 168%.

For the compound `CN1CCN2c3ccccc3N(Cc3ccc(Br)cc3)CCC2C1` (centres unmarked) [Example 22, 7-(4-bromobenzyl)-3-methyl-1,2,3,4,4a,5,6,7-octahydropyrazino[1,2-a][1,5]benzodiazepine], under “Homo sapiens, SK-N-SH, 18 h”, the EC50 was found to be 2.95 µM. Also, the Emax (Homo sapiens, SK-N-SH) amounted to 173%.

As for `Fc1cc(CN2Cc3ccccc3N3CCN(Cc4ccccc4)CC3C2)ccc1Br` (centres unmarked) [Example 23, 3-benzyl-6-(4-bromo-3-fluorobenzyl)-1,2,3,4,4a,5,6,7-octahydropyrazino[1,2-a][1,4]benzodiazepine], the EC50 (Homo sapiens, SK-N-SH, 18 h) stood at 5.72 µM. Besides, the Emax (Homo sapiens, SK-N-SH) was 238%.

For the origin of these results see US9133206B2, “Benzodiazepine and pyridodiazepine derivatives” (AbbVie Inc., priority 2010, dated 2015).
